Test system: human osteoporosis
Experiment: Case 1: bone density and symptoms of a person with compression fractures
Assay type: in vivo
Conditions: human patient
Excerpt: In the present specification, bone density can be measured by an existing measuring method, for example, by dual-energy-x-ray absorptiometry (DXA) of the trunk bone.

[1] = hydrogen gas inhalation 1.5% to 2.0% by volume

Compound	body feeling [1]	daily activity (weeding in the garden) [1]	feeling when waking up in the morning [1]	gait [1]	pain at the compression fracture sites in the lower back [1]	tiredness [1]	bone density (inhalation from November 2020, 1.5% to 2.0% by volume hydrogen, 30 mL/min, nightly, measured March 2021 (84% in August 2020))	bone density (baseline 74%, injection once every six months, 18 months later)	bone density (injection once every six months, August 2020)	bone density (injection once every six months, February 2020)
[HH] [hydrogen gas, molecular hydrogen]	feeling that the body became light	weeding in the garden becoming easy	having a good feeling and feeling refreshed	improvement in the gait	improvement	feeling tired less easily	92%	–	–	–
denosumab [Pralia Subcutaneous Injection, reference compound]	–	–	–	–	–	–	–	exceeded 80%	84%	86%

— patent US20220280558A1, “MOLECULAR HYDROGEN-CONTAINING COMPOSITION FOR PREVENTING OR IMPROVING OSTEOPOROSIS” (MiZ Company Limited, priority 2021, published 2022)
